The results in this text go back to patent US10961202B2, “Bis-benzimidazole compounds and methods of using the same” (THE SCRIPPS RESEARCH INSTITUTE, priority 2017, dated 2021).

Like-named read-outs stand apart in the source and are kept apart here.

Assay [1] has as its system MBNL1 exon 5 inclusion in DM1 myotubes. As to the kind of experiment: Myotube splicing rescue assay (MBNL1 exon 5 inclusion). The conditions noted are these: 48-hour incubation. The assay is classed as cell-based, human.
In assay [2] the test system is HSALR strain 20b mice. The experiment in a line: DM1 mouse efficacy study: RT-PCR of MBNL1-dependent splicing targets in gastrocnemius. The conditions noted are these: sc, subcutaneous. The assay is classed as in vivo.
The next assay deals with r(CUG)12-MBNL1 complex. As to the kind of experiment: Inhibition of the r(CUG)12-MBNL1 complex measured by TR-FRET. The assay is classed as biochemical. The conditions noted are these: 80 nM RNA, 60 nM MBNL1-His6.
Assay [3] concerns HSALR strain 20b mice. As to the kind of experiment: DM1 mouse efficacy study: RT-PCR of MBNL1-dependent splicing targets in gastrocnemius. It is filed as in vivo. The conditions noted are these: sc, 3 mg/kg qod 5 doses, subcutaneous. The source says: HSALR strain 20b mice were used as a model for myotonic dystrophy type I (DM1) experimental studies when testing the efficacy of candidate compounds. To determine the genotype of the mice, the transgene of human skeletal actin (HSA) genomic level was compared to endogenous mouse skeletal actin (MSA) by PCR. Mice with an HSA:MSA ratio of 2:1, homozygous mice were used for the study. Disease phenotype was confirmed in homozygous HSALR by assessing myotonia by pinching the quadriceps of the mouse. […] Homozygous HSALR that have been confirmed by PCR genotyping HSA:MSA ratio and are positive for pinch myotonia were selected for candidate compound efficacy studies for DM1.
For each study, a control group of PBS injected mice was included along with mice test groups injected with the compound to be tested. For a statistical power >80%, five mice were used per group (three females and two males). As previously indicated, homozygous HSALR mice were selected aged 8-12 weeks at the beginning of the study. Littermate mice were evenly distributed across groups in the study. Each cage contained mice from a single group. Female mice from different litters were combined into one cage for a single test group. Male mice cannot be combined in cages with non-littermate mice. If any fighting occurred in cages with multiple mice, the mice with minor/superficial fight wounds were be separated and monitored. Mice with severe fight wounds were removed from the study. Mice were monitored throughout the study for weight changes over time, behavioral changes at time of injection, and any other potential health concerns that arose during the study.
Mice were injected with approximately ˜200 μL solution subcutaneously by 28-gauge syringe. The volume administered was determined by the weight of the mouse where 10 iaL solution is administered per 1 g of the weight of the mouse. The compound was solubilized in DPBS at a concentration of […], which equated to a dose of 0.1-3.0 mg compound per kg weight of the animal (mpk). Mice were weighed once a week, and the volume of administered compound solution (or DPBS) was adjusted accordingly for correct mpk dosing. Once a compound was tested for acute toxicity in FVB wildtype mice, the compound was typically first tested at 3 mpk, injected every other day (q.o.d.) for five doses, and the mice sacrificed 24 hr after the last injection. Candidate compounds were further tested at different dose regimes to further assess the compound's efficacy in DM1 mice.
For each mouse, blood, brain, heart, liver, kidney, tibialis anterior, gastrocnemius, and quadriceps were dissected and collected. After the mouse was euthanized, blood was collected by cardiac puncture and placed in lithium heparin tubes on ice. Plasma was separated by centrifugation and collected. Brain, heart, half of the liver, tibialis anterior, gastrocnemius, and quadriceps were flash frozen in liquid nitrogen. Half of the liver, kidneys, and subset of heart samples were fixed in 10% formalin. One of the two tibialis anterior muscles was frozen with OCT for cyro-sectioning.
Gastrocnemius muscle was used for downstream RNA extraction RT-PCR. […] Half of one gastrocnemius was used for an RNA extraction. The gastrocnemius was homogenized in Trizol reagent and extracted following the protocol of the Zymo Direct-zol RNA Mini Prep Plus kit.
For each RNA sample, 500 ng of RNA was used for a reverse transcription reaction to produce single-stranded cDNA. MBNL1-dependent splicing targets (Clcn1 exon 7a, Mbnl1 exon 5, Sercal exon 22, and Zasp exon 11) and MBNL1-independent splicing targets (Capzb exon 8, Itgb1 exon 17) were assessed by RT-PCR. For the alternative exons listed, forward and reverse primers were designed to amplify the alternative exon along with the flanking constitutive exons such that one primer may produce two PCR products: one PCR product including the alternative exon and one PCR product excluding the alternative exon. […]

Setting [4] is: 7.5 mg/kg qod 8 doses, read-out: Clcn1 exon 7a splicing rescue %.
The mark [5] stands for this setting: 7.5 mg/kg qod 8 doses, read-out: Mbnl1 exon 5 splicing rescue %.
Setting [6] is: 7.5 mg/kg qod 8 doses, read-out: Serca1 exon 22 splicing rescue %.
Where [7] appears, read: 7.5 mg/kg qod 8 doses, read-out: Zasp exon 11 splicing rescue %.
[8] abbreviates: 7.5 mg/kg qod 5 doses, read-out: Clcn1 exon 7a splicing rescue %.
Setting [9] is: 7.5 mg/kg qod 5 doses, read-out: Mbnl1 exon 5 splicing rescue %.
Setting [10] is: 7.5 mg/kg qod 5 doses, read-out: Serca1 exon 22 splicing rescue %.

In general, IC50 refers to the concentration at which inhibition is half-maximal. The low end stands for higher potency, the high end for lower potency. `CN(C)CCOc1ccc(-c2nc3cc(-c4ccc5[nH]c(-c6ccc(OCCN(C)C)cc6)nc5c4)ccc3[nH]2)cc1` [Compound 153]: in assay [1], the “MBNL1 % splicing rescue at 1 μM” value came to 82.1%. In addition, the “MBNL1 % splicing rescue at 10 μM” value in assay [1] is 106.1%. Moreover, the percent splicing rescue at 7.5 mg/kg turned out to be 48.4% with HSALR strain 20b mice [2] (setting [4]), 40.8% with HSALR strain 20b mice [2] (setting [5]), 34% in the assay with HSALR strain 20b mice [2] (setting [6]) and 59.7% in the assay with HSALR strain 20b mice [2] (setting [7]). Besides, the IC50 with r(CUG)12-MBNL1 complex (Table L) came to 29 µM.

Regarding `CN(C)CCCSc1ccc2nc(-c3ccc(-c4nc5ccc(SCCCN(C)C)cc5[nH]4)cc3)[nH]c2c1` [Compound 60, 3,3′-((2,2′-(1,4-phenylene)bis(1H-benzo[d]imidazole-6,2-diyl))bis(sulfanediyl))bis(N,N-dimethylpropan-1-amine)], the “MBNL1 % splicing rescue at 1 μM” value in assay [1] is 18.9%. For the same molecule, the “MBNL1 % splicing rescue at 10 μM” value in assay [1] is listed as 80.9%. Moreover, the percent splicing rescue at 7.5 mg/kg with HSALR strain 20b mice [2] (setting [8]) was determined as 87.7%; with HSALR strain 20b mice [2] (setting [9]), 95.3%; in the assay with HSALR strain 20b mice [2] (setting [10]), 86%; with HSALR strain 20b mice [2] (7.5 mg/kg qod 5 doses, read-out: Zasp exon 11 splicing rescue %), 88.3%. In addition, the midpoint of inhibition with r(CUG)12-MBNL1 complex (Table L), the IC50, lay at 40 µM.

`CN(C)CCCOc1ccc(-c2nc3cc(-c4ccc5[nH]c(-c6ccc(C(=O)NCCN(C)C)cc6)nc5c4)ccc3[nH]2)cc1` [Compound 346]: in assay [1], the “MBNL1 % splicing rescue at 1 μM” value was found to be 79.9%. Further, the “MBNL1 % splicing rescue at 10 μM” value in assay [1] was found to be 74.8%. In addition, the percent splicing rescue at 7.5 mg/kg was found to be 105% with HSALR strain 20b mice [2] (setting [8]), 11.8% in the assay on HSALR strain 20b mice [2] (setting [9]) and 22.3% in the assay with HSALR strain 20b mice [2] (setting [10]). In the assay on r(CUG)12-MBNL1 complex (Table M), the IC50 came to 6.45 µM.

For the molecule `CN(C)CCCOc1cc2[nH]c(-c3ccc(-c4nc5cc(F)c(OCCCN(C)C)cc5[nH]4)cc3)nc2cc1F` [Compound 277, (3-[[2-(4-[6-[3-(dimethylamino)propoxy]-5-fluoro-1H-1,3-benzodiazol-2-yl]phenyl)-5-fluoro-1H-1,3-benzodiazol-6-yl]oxy]propyl)dimethylamine; 2-hydroxypropane-1,2,3-tricarboxylic acid], the “MBNL1 % splicing rescue at 10 μM” value in assay [1] came to 51.0%. The molecule also gave an IC50 in the assay with r(CUG)12-MBNL1 complex (Table M) of 8.29 µM. Moreover, the percent splicing rescue at 3 mg/kg in the assay with HSALR strain 20b mice [3] (read-out: Clcn1 exon 7a splicing rescue %) was found to be 30.3%; with HSALR strain 20b mice [3] (read-out: Mbnl1 exon 5 splicing rescue %) it was 19.9%; in the assay on HSALR strain 20b mice [3] (read-out: Serca1 exon 22 splicing rescue %), 13.2%; in the assay with HSALR strain 20b mice [3] (read-out: Zasp exon 11 splicing rescue %), 24.2%.

On to `CN(C)CCNC(=O)c1ccc(-c2nc3cc(-c4ccc5[nH]c(-c6ccc(C(=O)NCCN(C)C)cc6)nc5c4)ccc3[nH]2)cc1` [Compound 108, 4,4′-(1H,1′H-[5,5′-bibenzo[d]imidazole]-2,2′-diyl)bis(N-(2-(dimethylamino)ethyl)benzamide)], for which, in assay [1], the “MBNL1 % splicing rescue at 1 μM” value is 0.0%. Besides, in assay [1], the “MBNL1 % splicing rescue at 10 μM” value stood at 63.4%. Besides, the percent splicing rescue at 30 mg/kg was found to be 32.5% with HSALR strain 20b mice [2] (30 mg/kg qod 8 doses, read-out: Clcn1 exon 7a splicing rescue %); 57.4% with HSALR strain 20b mice [2] (30 mg/kg qod 8 doses, read-out: Mbnl1 exon 5 splicing rescue %); 59.1% with HSALR strain 20b mice [2] (30 mg/kg qod 8 doses, read-out: Serca1 exon 22 splicing rescue %); 50.1% in the assay with HSALR strain 20b mice [2] (30 mg/kg qod 8 doses, read-out: Zasp exon 11 splicing rescue %). The same molecule gave an IC50 in the assay with r(CUG)12-MBNL1 complex (Table L) of 13 µM.

With `CN(C)CCCOc1ccc2nc(-c3ccc(-c4nc5ccc(OCCCN(C)C)cc5[nH]4)cc3)[nH]c2c1` [Compound 58, 3,3′-((2,2′-(1,4-phenylene)bis(1H-benzo[d]imidazole-6,2-diyl))bis(oxy))bis(N,N-dimethylpropan-1-amine)], the “MBNL1 % splicing rescue at 1 μM” value in assay [1] worked out at 11.0%. Also, in assay [1], the “MBNL1 % splicing rescue at 10 μM” value came to 79.1%. Also, the percent splicing rescue at 7.5 mg/kg in the assay on HSALR strain 20b mice [2] (setting [4]) was determined as 68.3%; with HSALR strain 20b mice [2] (setting [5]) it was 80.2%; with HSALR strain 20b mice [2] (setting [6]), 90.5%; with HSALR strain 20b mice [2] (setting [7]), 102%. In addition, the IC50 with r(CUG)12-MBNL1 complex (Table L) turned out to be 19.8 µM.

For the molecule `CN(C)CCCOc1ccc(-c2nc3cc(-c4ccc5[nH]c(-c6ccc(OCCCN(C)C)cc6)nc5c4)ccc3[nH]2)cc1` [Compound 152], the “MBNL1 % splicing rescue at 1 μM” value in assay [1] is 85.4%. Also, the “MBNL1 % splicing rescue at 10 μM” value in assay [1] was found to be 79.8%. In addition, the percent splicing rescue at 7.5 mg/kg is 40.6% with HSALR strain 20b mice [2] (setting [5]), -19.8% with HSALR strain 20b mice [2] (setting [6]) and 46.1% with HSALR strain 20b mice [2] (setting [7]). In the assay with r(CUG)12-MBNL1 complex (Table L), this molecule yielded an IC50 of 10.7 µM.

With `O=C(NCCN1CCNCC1)c1ccc2nc(-c3ccc(-c4nc5ccc(C(=O)NCCN6CCNCC6)cc5[nH]4)cc3)[nH]c2c1` [Compound 47, 2,2′-(1,4-phenylene)bis(N-(2-(piperazin-1-yl)ethyl)-1H-benzo[d]imidazole-6-carboxamide)], the “MBNL1 % splicing rescue at 10 μM” value in assay [1] came out at 12.8%. The same molecule showed an IC50 in the assay with r(CUG)12-MBNL1 complex (Table L) of 6.8 µM.

Take `CN(C)CCCOc1cc2nc(-c3ccc(-c4nc5cc(Cl)c(OCCCN(C)C)cc5[nH]4)cc3)[nH]c2cc1Cl` [Compound 304, (3-[[6-chloro-2-(4-[5-chloro-6-[3-(dimethylamino)propoxy]-1H-1,3-benzodiazol-2-yl]phenyl)-1H-1,3-benzodiazol-5-yl]oxy]propyl)dimethylamine]: the “MBNL1 % splicing rescue at 10 μM” value in assay [1] was −42.3%. Further, half-maximal inhibition in the assay on r(CUG)12-MBNL1 complex (Table M) (IC50) required 5.8 µM.

With `CN1CCN(Cc2ccc(-c3nc4cc(-c5ccc6[nH]c(-c7ccc(CN8CCN(C)CC8)cc7)nc6c5)ccc4[nH]3)cc2)CC1` [Compound 337], in assay [1], the “MBNL1 % splicing rescue at 1 μM” value worked out at 57.2% and the “MBNL1 % splicing rescue at 10 μM” value turned out to be 73.3%. The same molecule registered an IC50 in the assay with r(CUG)12-MBNL1 complex (Table M) of 31.9 µM.

Regarding `CN(C)CCCOc1ccc2nc(-c3ccc(-c4nc5ccc(C(=O)NCCNC(=N)N)cc5[nH]4)cc3)[nH]c2c1` [Compound 264, 2-(4-(6-(3-(dimethylamino)propoxy)-1H-benzo[d]imidazol-2-yl)phenyl)-N-(2-guanidinoethyl)-1H-benzo[d]imidazole-6-carboxamide], the “MBNL1 % splicing rescue at 10 μM” value in assay [1] is on record as −23.5%. Besides, in the assay with r(CUG)12-MBNL1 complex (Table M), the midpoint of inhibition, the IC50, lay at 6.03 µM.

As to `Nc1ccc2nc(-c3ccc(-c4nc5ccc(NC6=NCCN6C6=NCCN6)cc5[nH]4)cc3)[nH]c2c1` [Compound 75, 2-(4-(6-amino-1H-benzo[d]imidazol-2-yl)phenyl)-N-(4,4′,5,5′-tetrahydro-1H-[1,2′-biimidazol]-2-yl)-1H-benzo[d]imidazol-6-amine], the “MBNL1 % splicing rescue at 10 μM” value in assay [1] amounted to 0.0%. In addition, the percent splicing rescue at 30 mg/kg turned out to be 39.4% in the assay with HSALR strain 20b mice [2] (30 mg/kg qd 7 doses, read-out: Clcn1 exon 7a splicing rescue %); 93.9% in the assay on HSALR strain 20b mice [2] (30 mg/kg qd 7 doses, read-out: Mbnl1 exon 5 splicing rescue %); 50% in the assay with HSALR strain 20b mice [2] (30 mg/kg qd 7 doses, read-out: Serca1 exon 22 splicing rescue %); 95.6% with HSALR strain 20b mice [2] (30 mg/kg qd 7 doses, read-out: Zasp exon 11 splicing rescue %). The midpoint of inhibition with r(CUG)12-MBNL1 complex (Table L), the IC50, lay at 3.2 µM.

As to `N=C(N)NCCC(=O)Nc1ccc2nc(-c3ccc(-c4nc5ccc(NC(=O)CCNC(=N)N)cc5[nH]4)cc3)[nH]c2c1` [Compound 65], the “MBNL1 % splicing rescue at 1 μM” value in assay [1] amounted to 31.7%. The molecule further returned an IC50 in the assay with r(CUG)12-MBNL1 complex (Table L) of 3.6 µM.
